“Also recorded” adds a separate entry of the source.

In the assay the test system is 661W cells. Briefly: Western blot of autophagy markers LC3-II and Atg5-12 in 661W cells treated with Fas activating antibody. Type of assay: cell-based, mouse. The arrangement: presence of LC3-II and Atg5-12 over time (prolongation of autophagy): dose or concentration left out as unconfirmed. The following applies: Fas activation. The procedure:
The 661W photoreceptor cell line was generously provided by Dr. Muayyad Al-Ubaidi (Department of Cell Biology, University of Oklahoma Health Sciences Center, Oklahoma City, Okla.). The 661W cell line was maintained in Dulbecco's modified Eagle's medium containing 10% fetal bovine serum, 300 mg/L glutamine, 32 mg/L putrescine, 40 μL/L β-mercaptoethanol, and 40 μg/L of both hydrocortisone 21-hemisuccinate and progesterone. The media also contained penicillin (90 units/mL) and streptomycin (0.09 mg/mL). Cells were grown at 37° C. in a humidified atmosphere of 5% CO2 and 95% air. Retinas from experimental eyes with detachment (detached portion of retina only) and control eyes without detachment were dissected from the RPE-choroid, homogenized, and lysed in buffer containing 10 mM HEPES (pH 7.6), 0.5% […], 42 mM KCl, 1 mM phenylmethylsulfonyl fluoride, 1 mM EDTA, 1 mM EGTA, 1 mM dithiothreitol, 5 mM MgCl2, and one tablet of protease inhibitors per 10 mL buffer (Complete Mini; Roche Diagnostics GmbH, Madison, Wis.). 661W cells were plated at 150,000 cells per well in six-well culture dishes in growth media. […] The protein concentration of the supernatant was then determined (DC Protein Assay kit; Bio-Rad Laboratories, Hercules, Calif.). The protein samples were separated on SDS-polyacrylamide gels (Tris-HCl Ready Gels; Bio-Rad Laboratories). […]

For the compound `CCCC[C@@H](C=O)NC(=O)[C@H](CC(C)C)NC(=O)OCc1ccccc1` [calpeptin], for the setting “24 hours”, the “dose at which LC3-II and Atg5-12 peaked (dose response for increasing autophagy)” value is 25 µM. Moreover, the “presence of LC3-II and Atg5-12 over time (prolongation of autophagy)” value (various lengths of time, calpeptin as printed, vs Fas activation alone / DMSO) was “lasted for an extended period of time; also recorded: elongated presence of LC3-II and Atg5-12”.
